The test deals with strips of urinary guinea-pig bladder contracted with carbacol. Description: Inhibition of bladder contraction: relaxation of guinea-pig urinary bladder strips contracted with carbacol, in vitro. Type of test: cell-based. The following applies: strips contracted with carbacol 10^−6 M, placebo = 100. The source says:
The activity in the urinary incontinence of the compounds according to the present invention has been evaluated in an experimental model of inhibition of the bladder contraction.
The degree of the relaxation induced in the urinary bladder is a measure of the inhibitory action of the urinary incontinence of the drugs described in the present application.
Guinea-pigs of male sex having an average weight equal to 300-500 g were sacrificed and bled. The urinary bladder was removed and prepared for determining the myorelaxing activity in vitro, according to the method described by L. Nilvenbrant, Eur. J. Pharmacol. 327,195-207, 1997.
The obtained tissue strips were contracted with carbacol 10^−6 M in phisiological solution and the relaxation was determined in the presence of the compounds indicated in Table 1 at the concentrations mentioned therein. The 2-(acetyloxy) benzoic acid 6-(nitroxymethyl)-2-methylpyridyl ester hydrochloride was prepared according to Example 1 of patent application PCT/EP 00/01454 (NCX 4050).

The record followed here is patent US20030203899A1, “Drugs for incontinence” (priority 2000, published 2003).

Where a name gives a salt, the structure may show the parent alone.

As for `CC(=O)Oc1ccccc1C(=O)Oc1ccc(CO[N+](=O)[O-])nc1C.Cl` [NCX 4050, 2-(acetyloxy) benzoic acid 6-(nitroxymethyl)-2-methylpyridyl ester hydrochloride], the “Bladder strip contraction, % of placebo” value (compound 3 × 10 − 5 M) is 71%.

Consider `CCN(CC)CC#CCOC(=O)C(O)(c1ccccc1)C1CCCCC1` (centres unmarked) [Oxybutynin Hydrochloride (Comp), oxybutynin hydrochloride, reference compound], for which the “Bladder strip contraction, % of placebo” value (compound 10^−6 M) came to 30%.

For the compound `CCCc1nn(C)c2c(=O)[nH]c(-c3cc(S(=O)(=O)N4CCN(C)CC4)ccc3OCC)nc12` [Sildenafil Citrate, sildenafil citrate, reference compound], the “Bladder strip contraction, % of placebo” value (compound 3 × 10 − 5 M) is 52%.

As to oxybutynin nitrate salt, the “Bladder strip contraction, % of placebo” value (compound 10^−6 M) was 0%. On to sildenafil nitrate salt, for which the “Bladder strip contraction, % of placebo” value (compound 3 × 10 − 5 M) is reported as 31%.
